Reference: ChEMBL document CHEMBL3885881, “DrugMatrix”

Organism: Rattus norvegicus
Experiment: DrugMatrix - Regimen: Daily Repeat
Format: toxicity, organism-based, Sprague-Dawley
Parameters: regimen Daily Repeat, gender Male, age 6-8 weeks
Details: in vivo, po, route oral GAVAGE, vehicle 100 % WATER; for ABSOLUTE BASOPHIL / ABSOLUTE EOSINOPHIL / ABSOLUTE LYMPHOCYTE / ABSOLUTE MONOCYTE / ABSOLUTE SEGMENTED NEUTROPHIL / BASOPHIL / EOSINOPHIL / ERYTHROCYTE COUNT / HEMATOCRIT / HEMOGLOBIN / LEUKOCYTE COUNT / LYMPHOCYTE / MEAN CORPUSCULAR HEMOGLOBIN / MEAN CORPUSCULAR HEMOGLOBIN CONCENTRATION / MEAN CORPUSCULAR VOLUME / MONOCYTE / NEUTROPHIL / NUCLEATED RED BLOOD CELLS / PLATELET COUNT: tissue Blood; for ALANINE AMINOTRANSFERASE / ALBUMIN / ALKALINE PHOSPHATASE / ASPARTATE AMINOTRANSFERASE / BLOOD UREA NITROGEN / CARBON DIOXIDE / CHLORIDE / CHOLESTEROL / CREATINE PHOSPHOKINASE / CREATININE / GLUCOSE / LACTATE DEHYDROGENASE / LIPASE / PHOSPHORUS / POTASSIUM / SODIUM / TOTAL BILIRUBIN / TOTAL PROTEIN / URIC ACID: tissue Plasma
[1] = 20 mg/kg, 120 h, dose level Low, time 5 day
[2] = 70 mg/kg, 72 h, dose level High, time 3 day
[3] = 70 mg/kg, 120 h, dose level High, time 5 day

Structure (SMILES): C=CCC1(C(C)CCC)C(=O)NC(=O)NC1=O (centres undefined) [SECOBARBITAL]
- ABSOLUTE BASOPHIL [1]: 0 CELLS/uL
- ABSOLUTE EOSINOPHIL [1]: 32 CELLS/uL
- ABSOLUTE LYMPHOCYTE [1]: 7003.67 CELLS/uL
- ABSOLUTE MONOCYTE [1]: 32 CELLS/uL
- ABSOLUTE SEGMENTED NEUTROPHIL [1]: 565.67 CELLS/uL
- BASOPHIL [1]: 0%
- EOSINOPHIL [1]: 0.33%
- ERYTHROCYTE COUNT [1]: 5.26 x10E6/uL
- HEMATOCRIT [1]: 32.97%
- HEMOGLOBIN [1]: 12.83 G/DL
- LEUKOCYTE COUNT [1]: 7.63 x10E3/uL
- LYMPHOCYTE [1]: 92%
- MEAN CORPUSCULAR HEMOGLOBIN [1]: 24.43 pg
- MEAN CORPUSCULAR HEMOGLOBIN CONCENTRATION [1]: 38.97 G/DL
- MEAN CORPUSCULAR VOLUME [1]: 62.7 fL
- MONOCYTE [1]: 0.33%
- NEUTROPHIL [1]: 7.33%
- NUCLEATED RED BLOOD CELLS [1]: 0.33 /100WBC
- PLATELET COUNT [1]: 1182 x10E3/uL
- ALANINE AMINOTRANSFERASE [1]: 49.33 u/L
- ALBUMIN [1]: 3.97 G/DL
- ALKALINE PHOSPHATASE [1]: 382 u/L
- ASPARTATE AMINOTRANSFERASE [1]: 77.67 u/L
- BLOOD UREA NITROGEN [1]: 13.67 mg/dL
- CARBON DIOXIDE [1]: 34 mmol/L
- CHLORIDE [1]: 99 MEQ/L
- CHOLESTEROL [1]: 77.33 mg/dL
- CREATINE PHOSPHOKINASE [1]: 254 u/L
- CREATININE [1]: 0.16 mg/dL
- GLUCOSE [1]: 144 mg/dL
- LACTATE DEHYDROGENASE [1]: 142.33 u/L
- LIPASE [1]: 9 u/L
- PHOSPHORUS [1]: 11.07 mg/dL
- POTASSIUM [1]: 5.94 MEQ/L
- SODIUM [1]: 144.5 MEQ/L
- TOTAL BILIRUBIN [1]: 0.17 mg/dL
- TOTAL PROTEIN [1]: 5.87 G/DL
- URIC ACID [1]: 0.4 mg/dL
- ABSOLUTE BASOPHIL [2]: 0 CELLS/uL
- ABSOLUTE EOSINOPHIL [2]: 0 CELLS/uL
- ABSOLUTE LYMPHOCYTE [2]: 6560.67 CELLS/uL
- ABSOLUTE MONOCYTE [2]: 45.33 CELLS/uL
- ABSOLUTE SEGMENTED NEUTROPHIL [2]: 794 CELLS/uL
- BASOPHIL [2]: 0%
- EOSINOPHIL [2]: 0%
- ERYTHROCYTE COUNT [2]: 5.13 x10E6/uL
- HEMATOCRIT [2]: 31.93%
- HEMOGLOBIN [2]: 12.3 G/DL
- LEUKOCYTE COUNT [2]: 7.4 x10E3/uL
- LYMPHOCYTE [2]: 88.67%
- MEAN CORPUSCULAR HEMOGLOBIN [2]: 24 pg
- MEAN CORPUSCULAR HEMOGLOBIN CONCENTRATION [2]: 38.53 G/DL
- MEAN CORPUSCULAR VOLUME [2]: 62.27 fL
- MONOCYTE [2]: 0.67%
- NEUTROPHIL [2]: 10.67%
- NUCLEATED RED BLOOD CELLS [2]: 0.33 /100WBC
- PLATELET COUNT [2]: 827 x10E3/uL
- ALANINE AMINOTRANSFERASE [2]: 56.67 u/L
- ALBUMIN [2]: 4.03 G/DL
- ALKALINE PHOSPHATASE [2]: 339 u/L
- ASPARTATE AMINOTRANSFERASE [2]: 83 u/L
- BLOOD UREA NITROGEN [2]: 12 mg/dL
- CARBON DIOXIDE [2]: 34.67 mmol/L
- CHLORIDE [2]: 98.67 MEQ/L
- CHOLESTEROL [2]: 74.67 mg/dL
- CREATINE PHOSPHOKINASE [2]: 397.33 u/L
- CREATININE [2]: 0.11 mg/dL
- GLUCOSE [2]: 142.33 mg/dL
- LACTATE DEHYDROGENASE [2]: 178.33 u/L
- LIPASE [2]: 9.67 u/L
- PHOSPHORUS [2]: 11.4 mg/dL
- POTASSIUM [2]: 6.11 MEQ/L
- SODIUM [2]: 143 MEQ/L
- TOTAL BILIRUBIN [2]: 0.17 mg/dL
- TOTAL PROTEIN [2]: 5.87 G/DL
- URIC ACID [2]: 0.63 mg/dL
- ABSOLUTE BASOPHIL [3]: 0 CELLS/uL
- ABSOLUTE EOSINOPHIL [3]: 40.33 CELLS/uL
- ABSOLUTE LYMPHOCYTE [3]: 5577 CELLS/uL
- ABSOLUTE MONOCYTE [3]: 23 CELLS/uL
- ABSOLUTE SEGMENTED NEUTROPHIL [3]: 693 CELLS/uL
- BASOPHIL [3]: 0%
- EOSINOPHIL [3]: 0.67%
- ERYTHROCYTE COUNT [3]: 5.58 x10E6/uL
- HEMATOCRIT [3]: 33.8%
- HEMOGLOBIN [3]: 13.07 G/DL
- LEUKOCYTE COUNT [3]: 6.33 x10E3/uL
- LYMPHOCYTE [3]: 88%
- MEAN CORPUSCULAR HEMOGLOBIN [3]: 23.4 pg
- MEAN CORPUSCULAR HEMOGLOBIN CONCENTRATION [3]: 38.67 G/DL
- MEAN CORPUSCULAR VOLUME [3]: 60.5 fL
- MONOCYTE [3]: 0.33%
- NEUTROPHIL [3]: 11%
- NUCLEATED RED BLOOD CELLS [3]: 0.33 /100WBC
- PLATELET COUNT [3]: 1210.33 x10E3/uL
- ALANINE AMINOTRANSFERASE [3]: 59.33 u/L
- ALBUMIN [3]: 4.03 G/DL
- ALKALINE PHOSPHATASE [3]: 373.67 u/L
- ASPARTATE AMINOTRANSFERASE [3]: 85.33 u/L
- BLOOD UREA NITROGEN [3]: 15.33 mg/dL
- CARBON DIOXIDE [3]: 32.33 mmol/L
- CHLORIDE [3]: 100 MEQ/L
- CHOLESTEROL [3]: 63.33 mg/dL
- CREATINE PHOSPHOKINASE [3]: 260.67 u/L
- CREATININE [3]: 0.13 mg/dL
- GLUCOSE [3]: 147 mg/dL
- LACTATE DEHYDROGENASE [3]: 127.67 u/L
- LIPASE [3]: 9 u/L
- PHOSPHORUS [3]: 10.93 mg/dL
- POTASSIUM [3]: 5.66 MEQ/L
- SODIUM [3]: 145.65 MEQ/L
- TOTAL BILIRUBIN [3]: 0.1 mg/dL
- TOTAL PROTEIN [3]: 5.8 G/DL
- URIC ACID [3]: 0.73 mg/dL
